Test results taken from US20090048269A1 (AstraZeneca AB, priority 2007, published 2009).
Several values for one entry are separate records, joined by “and”; a condition that tells them apart may be missing. Equal values may be shown once.

Legend:
[1] = molecular target: T1, human ALK5 (Homo sapiens, UniProt P36897); experiment: ALK5 Enzyme Assay 1; format: biochemical; set-up: 6His tagged ALK5 protein (amino acids 162-503) expressed in insect cells; 6His; made in house; host or cells: insect cells
T1 sequence (P36897 162-503): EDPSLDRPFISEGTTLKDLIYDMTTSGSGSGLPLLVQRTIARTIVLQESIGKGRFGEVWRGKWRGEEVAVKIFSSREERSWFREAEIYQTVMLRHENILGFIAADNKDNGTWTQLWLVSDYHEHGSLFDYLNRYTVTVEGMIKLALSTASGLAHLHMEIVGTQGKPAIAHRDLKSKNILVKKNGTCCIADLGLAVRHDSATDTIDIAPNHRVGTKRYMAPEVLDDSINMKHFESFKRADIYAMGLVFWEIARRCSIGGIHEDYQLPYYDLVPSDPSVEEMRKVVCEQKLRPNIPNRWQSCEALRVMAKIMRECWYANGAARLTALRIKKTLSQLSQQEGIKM
Protocol: This assay measures the ability of a compound to bind to and inhibit the activity of ALK5 protein in vitro. […] Assay measurements were performed in assay buffer comprising 60 mM HEPES pH 7.4, 3 mM MgCl2, 3 mM MnCl2, 3 μM Na orthovanadate, 1.2 mM DTT and 0.05% PEG2000. […] Reactions were performed in the presence of 200 μg/mL casein (Sigma-Aldrich C4765-10ML), 200 ng/mL ALK5, 0.5 μM ATP (Sigma-Aldrich A7699), 1 μCi/mL γ-33P ATP. Following addition of casein, ATP and compound, reactions were initiated by adding ALK5 enzyme and reactions run for 90 minutes. After incubation reactions were terminated by addition of 20 μL per well of 50% orthophosphoric acid. 20 minutes after addition of 70% v/v TCA, precipitated protein was transferred to GF/C 96 well plates using a Tomtec harvester with 1.5% orthophosphoric acid. […] All reactions were performed under linear kinetics.

[2] = molecular target: T1, human ALK5; experiment: ALK5 Enzyme Assay 2 (fluorescence polarisation probe displacement); format: binding; set-up: 6His tagged human ALK5 (residues162-503) was grown and purified from insect cells; 6His; made in house; host or cells: insect cells
Outline: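 Recombinant ALK5 (3 μg/mL) incubated with test compound in 50 mM HEPES pH7.4, 10 mM MgCl2, 1 mM DTT, 0.01% CHAPS. Displacement of a fluorescent quinazoline-based ALK5 probe (50 nM final) in presence of 1 μM ATP read by fluorescence polarisation.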

[3] = read-out: EAA: activity (μM) using Enzyme Assay 1
[4] = read-out: EAA2: activity (μM) using Enzyme Assay 2

| Compound | IC50 [1, 3] | IC50 [2, 4] | further results |
| --- | --- | --- | --- |
| COc1cccc(-c2nc(C)ccc2Oc2ccnc(Nc3cc(OC)c(OC)c(OC)c3)c2)c1 [Example 58, 4-[2-(3-Methoxy-phenyl)-6-methyl-pyridin-3-yl]oxy-N-(3,4,5-trimethoxy-phenyl)pyridin-2-amine] | 0.0187 µM | 0.135 µM | – |
| COc1cc(Nc2cc(Oc3ccc(C)nc3C)ccn2)cc(OC)c1OC [Example 7, 4-(2,6-Dimethylpyridin-3-yl)oxy-N-(3,4,5-trimethoxyphenyl)-pyridin-2-amine] | – | – | IC50 ([1]; EAA: activity (μM) using Enzyme Assay 1): 0.0206 µM; IC50 [2]: 0.0349 µM |
| COc1cc(Nc2cc(Oc3ccc(C)nc3-c3cnn(C)c3)ccn2)cc(OC)c1OC [Example 5, 4-[6-Methyl-2-(1-methylpyrazol-4-yl)pyridin-3-yl]oxy-N-(3,4,5-trimethoxy-phenyl)pyridin-2-amine] | 0.0153 µM | 0.0169 µM | – |
| COc1cc(Nc2cc(Oc3ccc(C)nc3)ccn2)cc(OC)c1OC [Example 8, 4-(6-Methylpyridin-3-yl)oxy-N-(3,4,5-trimethoxyphenyl)-pyridin-2-amine] | 0.174 µM | 0.294 µM | – |
| COc1cc(Nc2cc(Oc3ccc(C)nc3-c3ccnc4ccccc34)ccn2)cc(OC)c1OC [Example 170, 4-[6-Methyl-2-(quinolin-4-yl)pyridin-3-yloxy]-N-(3,4,5-trimethoxyphenyl)pyridin-2-amine] | 0.615 µM | – | – |
| Cc1ccc(Oc2ccnc(Nc3ccc(C(=O)O)cc3)c2)c(C)n1 [Example 205, Lithium 4-{[4-(2,6-dimethylpyridin-3-yl)oxypyridin-2-yl]-amino}benzoate] | 0.15 µM | – | – |
| COc1ccc(NC(=O)N2CCN(Cc3cccc(Nc4cc(Oc5ccc(C)nc5C)ccn4)c3)CC2)cc1 [Example 179, 4-[(3-{[4-(2,6-Dimethylpyridin-3-yl)oxypyridin-2-yl]-amino}phenyl)methyl]-N-(4-methoxyphenyl)piperazine-1-carboxamide] | – | 0.0233 µM | – |
| Cc1ccc(Oc2ccnc(Nc3ccccn3)c2)c(-c2ccccn2)n1 [Example 145, 4-(6-Methyl-2-pyridin-2-ylpyridin-3-yl)oxy-N-pyridin-2-yl-pyridin-2-amine] | – | 0.00825 µM | – |
| Cc1ccc(Oc2ccnc(Nc3ccc(C(=O)NCCN4CCCCC4)cc3)c2)c(C)n1 [Example 217, 4-{[4-(2,6-Dimethylpyridin-3-yl)oxypyridin-2-yl]amino}-N-(2-piperidin-1-ylethyl)benzamide] | – | 0.0121 µM | – |
| Cc1ccc(Oc2ccnc(Nc3cccc(CN4CCN(C(=O)OC(C)(C)C)CC4)c3)c2)c(C)n1 [Example 207, tert-Butyl 4-[(3-{[4-(2,6-dimethylpyridin-3-yl)oxypyridin-2-yl]-amino}phenyl)methyl]piperazine-1-carboxylate] | – | 0.0384 µM | – |
| COc1cc(Nc2cc(Oc3ccc(C)nc3N3CCCC3)ccn2)cc(OC)c1OC [Example 164, 4-(6-Methyl-2-(pyrrolidin-1-yl)pyridin-3-yloxy)-N-(3,4,5-trimethoxyphenyl)pyridin-2-amine] | – | 0.0275 µM | – |
| Cc1ccc(Oc2ccnc(Nc3cccc(CN4CCN(C(C)C(N)=O)CC4)c3)c2)c(C)n1 (stereo not shown) [Example 190, 2-14-[3-({4-[(2,6-dimethylpyridin-3-yl)oxylpyridin-2-yl}amino)-benzyl]piperazin-1-yl}propanamide] | – | 0.0322 µM | – |
| Cc1ccc(Oc2ccnc(Nc3cccc(CN4CCN(C(=O)CC(N)=O)CC4)c3)c2)c(C)n1 [Example 187, 3-{4-[(3-{[4-(2,6-Dimethylpyridin-3-yl)oxypyridin-2-yl]amino}phenyl)methyl]piperazin-1-yl}-3-oxopropanamide] | – | 0.0232 µM | – |
| Cc1ccc(Oc2ccnc(Nc3ccc(S(=O)(=O)NCCN4CCN(C)CC4)cc3)c2)c(C)n1 [Example 133, 4-{[4-(2,6-Dimethylpyridin-3-yl)oxypyridin-2-yl]amino}-N-[2-(4-methylpiperazin-1-yl)ethyl]benzenesulfonamide] | – | 0.0932 µM | – |
| COc1cc(Nc2cc(Oc3cccnc3-c3ccccc3C(N)=O)ccn2)cc(OC)c1OC [Example 221, 2-(3-{2-[(3,4,5-Trimethoxyphenyl)amino]pyridin-4-yl}oxypyridin-2-yl)benzamide] | – | 3.02 µM | – |

Continued, in another order:

| IC50 [1, 3] | IC50 [2, 4] | Compound | further results |
| --- | --- | --- | --- |
| 0.0104 µM | 0.0166 µM | Cc1cc(Oc2ccnc(Nc3ccc(N4CCN(C)CC4)cc3)c2)c(-c2ccccn2)nc1C [Example 20, 4-(5,6-Dimethyl-2-pyridin-2-yl-pyridin-3-yl)oxy-N-[4-(4-methyl-piperazin-1-yl)phenyl]pyridin-2-amine] | – |
| 0.0632 µM | 0.0515 µM | Cc1cc(Oc2ccnc(Nc3ccncc3)c2)c(-c2ccccn2)nc1C [Example 36, 4-(5,6-Dimethyl-2-pyridin-2-yl-pyridin-3-yl)oxy-N-pyridin-4-yl-pyridin-2-amine] | – |
| 0.0255 µM and 0.00856 µM | – | Cc1cc(Oc2ccnc(Nc3ccccn3)c2)c(-c2ccccn2)nc1C [Example 14, 4-(5,6-Dimethyl-2-pyridin-2-yl-pyridin-3-yl)oxy-N-pyridin-2-yl-pyridin-2-amine] | – |
| 0.0172 µM | 0.0167 µM | Cc1cc(Oc2ccnc(Nc3ccc(CO)cc3)c2)c(-c2ccccn2)nc1C [Example 33, (4-{[4-(5,6-Dimethyl-2-pyridin-2-yl-pyridin-3-yl)-oxypyridin-2-yl]amino}phenyl)methanol] | – |
| 1.14 µM and 1.11 µM | – | Cc1cc(Oc2ccnc(Nc3ccc4cc[nH]c4c3)c2)c(-c2ccccn2)nc1C [Example 40, N-[4-(5,6-Dimethyl-2-pyridin-2-yl-pyridin-3-yl)-oxypyridin-2-yl]-1H-indol-6-amine] | – |
| 0.00417 µM | – | Cc1cc(Oc2ccnc(Nc3ccccc3)c2)c(-c2ccccn2)nc1C [Example 24, 4-(5,6-Dimethyl-2-pyridin-2-yl-pyridin-3-yl)oxy-N-phenyl-pyridin-2-amine] | – |
| 2.8 µM | – | Cc1cc(Oc2ccnc(Nc3ccccc3Cl)c2)c(-c2ccccn2)nc1C [Example 194B, N-(2-Chlorophenyl)-4-(5,6-dimethyl-2-pyridin-2-ylpyridin-3-yl)-oxypyridin-2-amine] | – |
| 0.454 µM | – | COc1ccc(NC(C)=O)cc1Nc1cc(Oc2cc(C)c(C)nc2-c2ccccn2)ccn1 [Example 73, N-(3-{[4-(5,6-Dimethyl-2-pyridin-2-ylpyridin-3-yl)oxypyridin-2-yl]-amino}-4-methoxyphenyl)acetamide] | – |
| 0.0935 µM | – | Cc1cc(Oc2ccnc(Nc3ccn(C)n3)c2)c(-c2ccccn2)nc1C [Example 39, 4-(5,6-Dimethyl-2-pyridin-2-yl-pyridin-3-yl)oxy-N-(1-methylpyrazol-3-yl)-pyridin-2-amine] | – |
| – | 0.016 µM | Cc1cc(Oc2ccnc(Nc3cc(NS(C)(=O)=O)cc(C(N)=O)c3)c2)c(-c2ccccn2)nc1C [Example 84, 3-{[4-(5,6-Dimethyl-2-pyridin-2-ylpyridin-3-yl)oxypyridin-2-yl]-amino}-5-methanesulfonamidobenzamide] | – |
| – | 0.0114 µM | Cc1cc(Oc2ccnc(Nc3cccc(C(=O)N4CCCC(C)C4)c3)c2)c(-c2ccccn2)nc1C (stereo not shown) [Example 101, (3-{[4-(5,6-Dimethyl-2-pyridin-2-ylpyridin-3-yl)oxypyridin-2-yl]-amino}phenyl)-(3-methylpiperidin-1-yl)methanone] | – |
| – | 0.0384 µM | Cc1cc(Oc2ccnc(Nc3cccc(CN4CCN(C)CC4)c3)c2)c(-c2ccccn2)nc1C [Example 78, 4-(5,6-Dimethyl-2-pyridin-2-ylpyridin-3-yl)oxy-N-{3-[(4-methyl-piperazin-1-yl)methyl]phenyl}pyridin-2-amine] | – |
